Measurements reported in US11208387B2, “Macrocyclic broad spectrum antibiotics” (Genentech, Inc., priority 2019, dated 2021).
In brackets after ≈: the same amount, converted by molar mass. Where two headings read alike, the source gives them in different places.

Tests used:
Assay in all cases: Serum MIC, broth micro-dilution
Type in all cases: cell-based
[1] = tested on: Escherichia coli strain ATCC 25922; settings: Escherichia coli
Method: (§1) In vitro antimicrobial activity of each compound was determined by measuring minimal inhibitor concentrations (MICs) using the broth micro-dilution technique as approved by the Clinical and Laboratory Standards Institute (CLSI) (Methods for Dilution Antimicrobial Susceptibility Tests for Bacteria that Grow Aerobically; Approved Standard—Eighth Edition. CLSI document M07-A8. Wayne, Pa.: Clinical and Laboratory Standards; 2009). Antibacterial activity was measure against Escherichia coli strain ATCC 25922 (E. coli), Klebsiella pneumoniae ATCC 700603 (K. pneumoniae), Acinetobacter baumannii ATCC 17978 (A. baumannii), and Pseudomonas aeruginosa PA01 (P. aeruginosa), each of which is representative of a clinically relevant Gram-negative species. Cells were inoculated onto plates of Mueller Hinton Agar and grown at 37° C. for 16-18 hours. Inocula suspensions were prepared by scraping cells into 1 mL of testing media (Mueller Hinton II cation adjusted Broth) and diluting to a final OD 600 nm of 0.01.
(§2) Test compounds were prepared in DMSO at a concentration of […]. The compounds were tested under several different dilution formats. In protocol 1, the compound stocks were diluted into testing media at a concentration of 64 μg/ml and serial 2-fold dilutions were made in the same media, in 96-well U bottom microtiter dishes, for a total of 10 compound concentrations. In protocol 2, the compound stocks were diluted into testing media at a concentration of 4 μg/mL and serial 2-fold dilutions were made in the same media, in 96-well U bottom microtiter dishes, for a total of 10 compound concentrations. In protocol 3, compound stocks were diluted into testing media at a concentration of 0.5 μg/mL, with serial 2-fold dilutions conducted as described above. In protocol 4, compound stocks were diluted into testing media at a concentration of 0.13 μg/mL, with serial 2-fold dilutions conducted as described above. Inocula suspensions were added to the 2-fold serial dilutions of test compounds to a final density of OD 600 nm of 0.0005 and incubated at 35° C. for 22 hours. […] To assess antimicrobial activity in the presence of plasma proteins, MICs were also determined in growth media supplemented with 50% serum. Bacterial inocula and test compound dilution plates were prepared using the same protocol as described above for the standard MICs assay, with the exception that a mixture of 50% v/v Mueller Hinton II cation adjusted Broth and 50% v/v mouse sterile filtered serum (Equitech-Bio) was used in place of 100% Mueller Hinton II cation adjusted Broth. The results are listed in Table 3 (MIC, IC50 values micromolar).

[2] = tested on: Klebsiella pneumoniae ATCC 700603; settings: Klebsiella pneumoniae
Method: as §1, §2

[3] = tested on: Acinetobacter baumannii ATCC 17978; settings: Acinetobacter baumannii
Method: as §1, §2

[4] = tested on: Pseudomonas aeruginosa PA01; settings: Pseudomonas aeruginosa
Method: as §1, §2

[5] = ATCC25922, 50% v/v mouse serum, compounds of Table 1, Table 7, read-out: E. coli 25922 Serum MIC
[6] = ATCC700603, 50% v/v mouse serum, compounds of Table 1, Table 7, read-out: K. pneumoniae 700603 Serum MIC
[7] = ATCC17978, 50% v/v mouse serum, compounds of Table 1, Table 7, read-out: A. baumanii 17978 Serum MIC
[8] = PA01, 50% v/v mouse serum, compounds of Table 1, Table 7, read-out: P. aeruginosa 01 Serum MIC

| Compound | MIC [1, 5] [µM] | MIC [2, 6] [µM] | MIC [3, 7] [µM] | MIC [4, 8] [µM] | also measured |
| --- | --- | --- | --- | --- | --- |
| Cc1nc(-c2ccc(C(C)(C)C)cc2)nc(C)c1C(=O)N[C@@H](CCN)C(=O)N(C)[C@@H]1C(=O)N[C@@H](C)C(=O)N[C@H](C(=O)O)Cc2cc(OCCN)c(O)c(c2)-c2cc1ccc2O (racemic) [Example 561-15] | 2 (≈ 1.68 µg/mL) | 4 (≈ 3.36 µg/mL) | 64 (≈ 53.7 µg/mL) | 64 (≈ 53.7 µg/mL) | – |
| Cc1nc(-c2ccc(C(C)(C)C)cc2)nc(C)c1C(=O)N[C@@H](CCN)C(=O)N(C)[C@@H]1C(=O)N[C@@H](C)C(=O)N[C@H](C(=O)O)Cc2cc(OCCN)c(O)c(c2)-c2cc1ccc2OCCN (racemic) [Example 563] | – | – | – | – | MIC ([1]; ATCC25922, read-out: E. coli 25922 Serum MIC): 0.75 µM (≈ 0.662 µg/mL); MIC ([2]; ATCC700603, read-out: K. pneumoniae 700603 Serum MIC): 0.75 µM (≈ 0.662 µg/mL); MIC ([3]; ATCC17978, read-out: A. baumanii 17978 Serum MIC): 64 µM (≈ 56.5 µg/mL); MIC ([4]; PA01, read-out: P. aeruginosa 01 Serum MIC): 64 µM (≈ 56.5 µg/mL) |
| COc1c(OC[C@H](O)CN)cc2cc1-c1cc(ccc1OC[C@H](O)CN)C[C@@H](C(=O)NCC#N)NC(=O)[C@H](C)NC(=O)[C@H]2N(C)C(=O)[C@H](CCN)NC(=O)c1c(C)nc(-c2ccc(C(C)(C)C)cc2)nc1C (racemic) [Example 586] | 0.094 (≈ 0.0935 µg/mL) | 0.094 (≈ 0.0935 µg/mL) | 2 (≈ 1.99 µg/mL) | 2 (≈ 1.99 µg/mL) | – |
| CCCCCOc1ccc(-c2nc(C)c(C(=O)N[C@@H](CCN)C(=O)N(C)[C@@H]3C(=O)N[C@@H](C)C(=O)N[C@H](C(=O)O)Cc4ccc(OCCN)c(c4)-c4cc3ccc4OCCN)c(C)n2)cc1 (racemic) [Example 638] | 0.75 (≈ 0.672 µg/mL) | 1 (≈ 0.896 µg/mL) | 64 (≈ 57.3 µg/mL) | 64 (≈ 57.3 µg/mL) | – |
| CCC1(Oc2ccc(-c3nc(C)c(C(=O)N[C@@H](CCN)C(=O)N(C)[C@@H]4C(=O)N[C@@H](C)C(=O)N[C@H](C(=O)O)Cc5ccc(OCCN)c(c5)-c5cc4ccc5OCCN)c(C)n3)cc2)CC1 (racemic) [Example 639] | 0.5 (≈ 0.447 µg/mL) | 1 (≈ 0.894 µg/mL) | 64 (≈ 57.2 µg/mL) | 64 (≈ 57.2 µg/mL) | – |
| Cc1nc(-c2ccc(C(C)(C)C)cc2)ncc1C(=O)N[C@@H](CCN)C(=O)N(C)[C@@H]1C(=O)N[C@@H](C)C(=O)N[C@H](C(=O)O)Cc2ccc(OCCN)c(c2)-c2cc1ccc2OCCN (racemic) [Example 640] | 0.5 (≈ 0.426 µg/mL) | 0.75 (≈ 0.639 µg/mL) | 64 (≈ 54.5 µg/mL) | 64 (≈ 54.5 µg/mL) | – |
| CCCCCCOc1ccc(-c2nc(C)c(C(=O)N[C@@H](CCN)C(=O)N(C)[C@@H]3C(=O)N[C@@H](C)C(=O)N[C@H](C(=O)O)Cc4ccc(OCCN)c(c4)-c4cc3ccc4OCCN)c(C)n2)cc1 (racemic) [Example 641] | 0.75 (≈ 0.683 µg/mL) | 1 (≈ 0.91 µg/mL) | 64 (≈ 58.2 µg/mL) | 64 (≈ 58.2 µg/mL) | – |
| CCCCCOc1ccc(-c2nc(C)c(C(=O)N[C@@H](CCN)C(=O)N(C)[C@@H]3C(=O)N[C@@H](C)C(=O)N[C@H](C(=O)O)Cc4ccc(OCCN)c(c4)-c4cc3ccc4O)c(C)n2)cc1 (racemic) [Example 642] | 25 (≈ 21.3 µg/mL) | 1.1 (≈ 0.938 µg/mL) | 71 (≈ 60.6 µg/mL) | 53 (≈ 45.2 µg/mL) | – |
| Cc1nc(-c2ccc(OC(C)C)cc2)nc(C)c1C(=O)N[C@@H](CCN)C(=O)N(C)[C@@H]1C(=O)N[C@@H](C)C(=O)N[C@H](C(=O)O)Cc2ccc(O)c(c2)-c2cc1ccc2OCCN (racemic) [Example 643] | 2.3 (≈ 1.9 µg/mL) | 4.6 (≈ 3.79 µg/mL) | 73 (≈ 60.2 µg/mL) | 73 (≈ 60.2 µg/mL) | – |
| Cc1cc(-c2ccc(C(C)(C)C)cc2)nc(C)c1C(=O)N[C@@H](CCN)C(=O)N(C)[C@@H]1C(=O)N[C@@H](C)C(=O)N[C@H](C(=O)O)Cc2ccc(O)c(c2)-c2cc1ccc2OCCN (racemic) [Example 644] | 1.2 (≈ 0.986 µg/mL) | 4.6 (≈ 3.78 µg/mL) | 74 (≈ 60.8 µg/mL) | 74 (≈ 60.8 µg/mL) | – |
| Cc1nc(-c2ccc(C(C)(C)C)cc2)nc(C)c1C(=O)N[C@@H](CCN)C(=O)N(C)[C@@H]1C(=O)N[C@@H](C)C(=O)N[C@H](C(=O)O)Cc2ccc(OCCN)c(c2)-c2cc1ccc2OCCN (racemic) [Example 645] | 0.53 (≈ 0.459 µg/mL) | 0.55 (≈ 0.476 µg/mL) | 67 (≈ 58 µg/mL) | 67 (≈ 58 µg/mL) | – |
| Cc1nc(-c2ccc(C(C)(C)C)cc2)nc(C)c1C(=O)N[C@@H](CCN)C(=O)N(C)[C@@H]1C(=O)N[C@@H](C)C(=O)N[C@H](C(=O)O)Cc2ccc(O)c(c2)-c2cc1ccc2OCCN (racemic) [Example 646] | 0.55 (≈ 0.453 µg/mL) | 0.58 (≈ 0.477 µg/mL) | 69 (≈ 56.8 µg/mL) | 69 (≈ 56.8 µg/mL) | – |
| Cc1nc(-c2ccc3c(c2)CCC3(C)C)nc(C)c1C(=O)N[C@@H](CCN)C(=O)N(C)[C@@H]1C(=O)N[C@@H](C)C(=O)N[C@H](C(=O)O)Cc2ccc(OCCN)c(c2)-c2cc1ccc2OCCN (racemic) [Example 647] | 0.5 (≈ 0.439 µg/mL) | 1 (≈ 0.878 µg/mL) | 64 (≈ 56.2 µg/mL) | 64 (≈ 56.2 µg/mL) | – |
| CCCCCOc1ccc(-c2nc(C)c(C(=O)N[C@@H](CCN)C(=O)N(C)[C@@H]3C(=O)N[C@@H](C)C(=O)N[C@H](C(=O)O)Cc4ccc(O)c(c4)-c4cc3ccc4OCCN)c(C)n2)cc1 (racemic) [Example 648] | 0.6 (≈ 0.512 µg/mL) | 1.3 (≈ 1.11 µg/mL) | > 96 | > 128 | – |
| Cc1nc(-c2ccc(C(C)(C)C)cc2)nc(C)c1C(=O)N[C@@H](CCN)C(=O)N(C)[C@@H]1C(=O)N[C@@H](C)C(=O)N[C@H](C(=O)O)Cc2ccc(OCCN)c(c2)-c2cc1cc1[nH]c(=O)oc21 (racemic) [Example 649] | 1 (≈ 0.864 µg/mL) | 2 (≈ 1.73 µg/mL) | 64 (≈ 55.3 µg/mL) | 64 (≈ 55.3 µg/mL) | – |
| C[C@@H]1NC(=O)[C@@H](N(C)C(=O)[C@H](CNS(N)(=O)=O)NC(=O)c2cnn(-c3ccc(C(C)(C)C)cc3)c(=O)c2)c2cc(OC[C@H](O)CN)c(O)c(c2)-c2cc(ccc2OC[C@H](O)CN)C[C@@H](C(=O)O)NC1=O [Example 1, (8S,11S,14S)-18-hydroxy-11-methyl-14-[methyl-[(2S)-2-[[1-(4-tert-butylphenyl)-6-oxo-pyridazine-4-carbonyl]amino]-3-(sulfamoylamino)-propanoyl]amino]-10,13-dioxo-3,17-bis[(2R)-3-amino-2-hydroxy-propoxy]-9,12-diazatricyclo-[13.3.1.12,6]icosa-1(18),2(20),3,5,15(19), 16-hexaene-8-carboxylic acid] | – | – | – | – | MIC ([1]; ATCC25922, 22 h, read-out: E. coli 25922 Serum MIC): 3 µM (≈ 2.99 µg/mL); MIC ([2]; ATCC700603, 22 h, read-out: K pneumoniae 700603 Serum MIC): 1.5 µM (≈ 1.49 µg/mL); MIC ([3]; ATCC17978, 22 h, read-out: A. baumanii 17978 Serum MIC): 24 µM (≈ 23.9 µg/mL); MIC ([3]; ATCC17978, 22 h, read-out: Acinetobacter baumanii 17978 Serum MIC): 24 µM (≈ 23.9 µg/mL); MIC ([4]; PA01, 22 h, read-out: P. aeruginosa 01 Serum MIC): 16 µM (≈ 15.9 µg/mL) |
| Cc1nc(-c2ccc(OCCC(C)(C)C)cc2)nc(N)c1C(=O)N[C@@H](CNS(N)(=O)=O)C(=O)N(C)[C@@H]1C(=O)N[C@@H](C)C(=O)N[C@H](C(=O)O)Cc2ccc(OC[C@H](O)CN)c(c2)-c2cc1cc(OC[C@H](O)CN)c2O [Example 3, (8S,11S,14S)-18-hydroxy-11-methyl-14-[methyl-[(2S)-2-[[4-amino-2-[4-(3,3-dimethylbutoxy)-phenyl]-6-methyl-pyrimidine-5-carbonyl]amino]-3-(sulfamoylamino)-propanoyl]amino]-10,13-dioxo-3,17-bis[(2R)-3-amino-2-hydroxy-propoxy]-9,12-diazatricyclo-[13.3.1.12,6]icosa-1(18),2(20),3,5,15(19), 16-hexaene-8-carboxylic acid] | – | – | – | – | MIC ([1]; ATCC25922, 50% v/v mouse serum in Mueller Hinton II cation adjusted Broth, 35° C., 22 hours, Table 4, read-out: E. coli 25922 Serum MIC): 0.5 µM (≈ 0.526 µg/mL); MIC ([2]; ATCC700603, 50% v/v mouse serum in Mueller Hinton II cation adjusted Broth, 35° C., 22 hours, Table 4, read-out: K pneumoniae 700603 Serum MIC): 0.5 µM (≈ 0.526 µg/mL); MIC ([3]; ATCC17978, 50% v/v mouse serum in Mueller Hinton II cation adjusted Broth, 35° C., 22 hours, Table 4, read-out: A. baumanii 17978 Serum MIC): 12 µM (≈ 12.6 µg/mL); MIC ([3]; ATCC17978, 50% v/v mouse serum in Mueller Hinton II cation adjusted Broth, 35° C., 22 hours, Table 5, read-out: Acinetobacter baumanii 17978 Serum MIC): 12 µM (≈ 12.6 µg/mL); MIC ([4]; PA01, 50% v/v mouse serum in Mueller Hinton II cation adjusted Broth, 35° C., 22 hours, Table 4, read-out: P. aeruginosa 01 Serum MIC): 4 µM (≈ 4.21 µg/mL) |
